{"source": "patent US20240352066A1", "about": "“ANTIMICROBIAL COMPOUNDS AND THE METHOD OF USE” (priority 2021, published 2024)", "key": {"[1]": {"test_system": "C. albicans", "assay_type": "cell-based, Candida albicans", "settings": "24 h", "protocol": "2-fold serial dilutions of 100× peptoid solutions were prepared in water and 2 μL of peptoid were added to each well in triplicate. […] MIC was defined as the lowest concentration of compound preventing fungal growth. This assay was repeated 3 times on separate days with each compound."}, "[2]": {"test_system": "C. neoformans"}, "[3]": {"test_system": "HepG2 hepatocellular carcinoma cells", "assay": "Mammalian cytotoxicity, MTT, HepG2", "assay_type": "cell-based, human", "outline": "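HepG2 cells (1×10^5 cells/mL, phenol-red-free DMEM, 10% FBS) were exposed to 2-fold dilutions of compound at 1.56–200 μg/mL final, in triplicate, for 72 h at 37 °C, 5% CO2. MTT was added for 3 h and, after DMSO solubilization, absorbance was read at 570 nm. TD50 is the concentration giving a 50% growth reduction versus the water vehicle, reported as the mean of biological replicates ± SD.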"}, "[4]": {"test_system": "Staphylococcus aureus ATCC 29213", "assay_type": "cell-based", "settings": "ATCC 29213, 24 h", "protocol": "(§1) The minimum inhibitory concentration (MIC) of peptoids against the ESKAPE bacteria (Enterococcus faecium ATCC 6569; Staphylococcus aureus ATCC 29213; Klebsiella pneumoniae ATCC 13883; Acinetobacter 55aumannii ATCC 19606; Pseudomonas aeruginosa ATCC 25619; Enterococcus faecalis ATCC 29212; and Escherichia coli ATCC 25922) was determined following CLSI guidelines (CLSI. Methods for Dilution Antimicrobial Susceptibility Tests for Bacteria That Grow Aerobically, 11th Edition. (Clinical and Laboratory Standards Institute, 2018). The MIC against Mycobacterium smegmatis was also determined following CLSI guidelines (Woods et al., Susceptibility Testing of Mycobacteria, Nocardiae, and Other Aerobic Actinomycetes, 2nd edition. (2011)). Colonies picked from streaked tryptic soy agar plates were added to tryptic soy broth (TSB) to achieve a turbidity of OD600=0.08-0.15. Inoculant was diluted 1:200 into cation adjust Mueller Hinton Broth (CAVHB) and 90 μL was plated into each well of a 96 well black-wall plate. 2-fold serial dilutions of 10× peptoid (10 μL) were added to each well in triplicate and incubated at 37° C. for 24 hours for the ESKAPE bacteria and 72 hours for M. smegmatis. Tetracycline (20 μg/mL) was used as a positive control with DI water was used as a vehicle control. Following incubation for the ESKAPE bacteria, PrestoBlue (10 μL) was added to each well and incubated at 37° C. for one hour before measuring fluorescence on a SpectraMax M5 plate reader (Ex. 555 nm; Em. 585 nm). Following incubation for M. smegmatis, wells were scored following CLSI guidelines to determine MIC. This assay was repeated three times on separate days."}, "[5]": {"test_system": "Mycobacterium smegmatis", "assay_type": "cell-based", "settings": "72 h", "protocol": "as §1"}, "[6]": {"test_system": "Enterococcus faecalis ATCC 29212", "assay_type": "cell-based", "settings": "ATCC 29212, 24 h", "protocol": "as §1"}, "[7]": {"test_system": "Pseudomonas aeruginosa ATCC 25619", "assay_type": "cell-based", "settings": "ATCC 25619, 24 h", "protocol": "as §1"}, "[8]": {"test_system": "Enterococcus faecium ATCC 6569", "assay_type": "cell-based", "settings": "ATCC 6569, 24 h", "protocol": "as §1"}, "[9]": {"test_system": "Escherichia coli ATCC 25922", "assay_type": "cell-based", "settings": "ATCC 25922, 24 h", "protocol": "as §1"}, "[10]": {"test_system": "Klebsiella pneumoniae ATCC 13883", "assay_type": "cell-based", "settings": "ATCC 13883, 24 h", "protocol": "as §1"}}, "note": "Where a SMILES comes first, the peptide text is derived from it. [ ]: non-standard residue; d: D form. N(tridecyl)Gly = CCCCCCCCCCCCCNCC(=O)O; Gly(N-2-aminoethyl) = NCCNCC(=O)O; Gly(N-cHex) = O=C(O)CNC1CCCCC1; Nlys = NCCCCNCC(=O)O", "data": [{"compound": "CCCCCCCCCCCCCNCC(=O)N(CC(=O)N(CCCCN)CC(=O)N(CCN)CC(=O)N(CC(N)=O)C1CCCCC1)C1CCCCC1", "note": "[RMG8-8, Ntri-Ncha-Nlys-Nae-Ncha] (H-[N(tridecyl)Gly][Gly(N-cHex)][Nlys][Gly(N-2-aminoethyl)][Gly(N-cHex)]-NH2)", "values": [{"measurement": "MIC C. albicans", "setting": "[1]", "value": 25, "unit": "µg/mL"}, {"measurement": "MIC C. neoformans after incubation with human serum", "setting": "[2]", "value": 3.13, "unit": "µg/mL"}, {"measurement": "MIC C. neoformans, stock not incubated with human serum", "setting": "[2]", "value": 1.56, "unit": "µg/mL"}, {"measurement": "TD50 HepG2", "setting": "[3]", "value": 189, "unit": "µg/mL"}, {"measurement": "MIC S. aureus", "setting": "[4]", "value": 6.25, "unit": "µg/mL"}, {"measurement": "MIC M. smegmatis", "setting": "[5]", "value": "3.13 to 6.25", "unit": "µg/mL"}, {"measurement": "MIC E. faecalis", "setting": "[6]", "value": 6.25, "unit": "µg/mL"}, {"measurement": "MIC P. aeruginosa", "setting": "[7]", "value": 100, "unit": "µg/mL"}, {"measurement": "MIC E. faecium", "setting": "[8]", "value": 6.25, "unit": "µg/mL"}, {"measurement": "MIC E. coli", "setting": "[9]", "value": 12.5, "unit": "µg/mL"}, {"measurement": "MIC K. pneumoniae", "setting": "[10]", "value": 100, "unit": "µg/mL"}]}]}
